Measurements: US9126984B2, “4-(indol-3-yl)-pyrazole derivatives, pharmaceutical compositions and methods for use” (ITEOS THERAPEUTICS, priority 2013, dated 2015)

How the values were obtained:
[1] = target: T1, human recombinant TDO2 enzyme (Homo sapiens, UniProt P48775); experiment: Assay for TDO2 enzymatic activity determination; assay type: biochemical; conditions: human recombinant TDO2, L-Trp 1 mM, room temperature one hour, kynurenine absorbance at 480 nm
T1 construct: made in house
Experimental: To measure the TDO2 activity, the reaction mixture contained (final concentrations) potassium phosphate buffer (50 mM, pH 7.5), ascorbic acid (0.25 M), methylene blue (0.125 μM), catalase (40 units/mL, from bovine liver, Sigma), and human recombinant TDO2 enzyme (prepared as described in Dolusic et al. J. Med. Chem.; 2011, 54, 5320-5334; 0.9 μg) without or with the compounds of the present invention embodiments at the indicated concentrations (total volume 112.5 μL). The reaction was initiated by the addition of 37.5 μL of L-Trp (final concentration 1 mM) at room temperature. The reaction was conducted at room temperature during one hour and stopped by the addition of 30 μL of 30% (w/v) trichloroacetic acid.
To convert N-formylkynurenine into kynurenine, the reaction mixture was incubated at 65° C. for 30 min. Then 150 μL of the reaction mixture was mixed with 120 μL, of 2.5% (w/v) 4-(dimethylamino)-benzaldehyde in acetic acid and incubated for 5 min at room temperature. Kynurenine concentrations were determined by measuring the absorbance at 480 nm. A standard curve was made with pure kynurenine. The TDO activity was measured as described above using ten serial concentrations of certain embodiments of the compounds of the present invention. Data were fitted using the Prism software (GraphPad Software, Inc.).

[2] = target: T2, murine mastocytoma P815 cells overexpressing hTDO2 (Homo sapiens, UniProt P48775); experiment: Cellular assay for TDO2 activity determination; assay type: cell-based; conditions: P815 cells overexpressing hTDO2, overnight incubation at 37° C., kynurenine absorbance at 480 nm
T2 construct: expressed in transfected cells; host or cells: murine mastocytoma P815 cells
Experimental: The assay was performed in 96-well flat bottom plates seeded with murine mastocytoma P815 cells overexpressing hTDO2 (prepared as described in Pilotte et al., PNAS, 2012, 109(7), 2497-2502), at a concentration of 5×10^4 cells/well in a final volume of 200 μL. To determine TDO or IDO activity, the cells were incubated overnight at 37° C. at 5% CO2 in IMDM (Invitrogen) supplemented with 2% FBS and 2% penicillin/streptomycin in the presence of the compounds of the present invention, at different concentrations.
The plates were then centrifuged 5 min at 1000 rpm, and 100 μL of the supernatant were collected in a conical plate, 30 uL of TCA 30% were added and a further centrifugated at 3000×g for 10 minutes. 100 μL of the supernatant were collected in a flat bottomed plate and 100 μL of 2% (w/v) 4-(dimethylamino)-benzaldehyde in acetic acid and incubated for 5 min at room temperature. Kynurenine concentrations were determined by measuring the absorbance at 480 nm. A standard curve was made with pure kynurenine. The TDO activity was measured as described above using ten serial concentrations of the compounds of the present invention. Data were fitted using the Prism software (GraphPad Software, Inc.).

T2 sequence (P48775 whole entry): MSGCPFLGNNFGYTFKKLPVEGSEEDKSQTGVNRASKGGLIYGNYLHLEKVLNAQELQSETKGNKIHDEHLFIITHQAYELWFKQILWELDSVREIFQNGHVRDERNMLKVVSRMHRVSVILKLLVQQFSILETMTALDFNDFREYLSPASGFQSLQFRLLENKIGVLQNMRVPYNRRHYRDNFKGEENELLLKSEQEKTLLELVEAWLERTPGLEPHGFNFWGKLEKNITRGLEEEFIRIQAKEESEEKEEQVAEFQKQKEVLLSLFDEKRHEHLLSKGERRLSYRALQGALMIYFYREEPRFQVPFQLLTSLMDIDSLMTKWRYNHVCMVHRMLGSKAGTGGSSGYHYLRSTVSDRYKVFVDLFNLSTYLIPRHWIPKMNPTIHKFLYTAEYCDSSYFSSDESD
T1 sequence (P48775 whole entry): as above

melting point [°C]	IC50 [1] [nM]	IC50 [2] [nM]	Compound
193.7 to 196.1	1000 to 10000		CN(C)CC(=O)N1CCC(n2cc(-c3c[nH]c4cc(F)ccc34)cn2)CC1 [Example 83, 2-(dimethylamino)-1-(4-(4-(6-fluoro-1H-indol-3-yl)-1H-pyrazol-1-yl)piperidin-1-yl)ethanone]
179.5 to 180.8	1000 to 10000		CC(=O)NCCn1cc(-c2c[nH]c3cc(F)ccc23)cn1 [Example 21, N-(2-(4-(6-fluoro-1H-indol-3-yl)-1H-pyrazol-1-yl)ethyl)acetamide]
231 to 232	1000 to 10000		CC(C)(C)C(=O)N1CCC(n2cc(-c3c[nH]c4cc(F)ccc34)cn2)CC1 [Example 87, 1-(4-(4-(6-fluoro-1H-indol-3-yl)-1H-pyrazol-1-yl)piperidin-1-yl)-2,2-dimethylpropan-1-one]
	1000 to 10000	1000 to 10000	CN(C)C(=O)Cn1cc(-c2c[nH]c3cc(F)ccc23)cn1 [Example 40, 2-(4-(6-fluoro-1H-indol-3-yl)-1H-pyrazol-1-yl)-N,N-dimethylacetamide]
	< 1000	< 1000	OCCn1cc(-c2c[nH]c3cc(F)ccc23)cn1 [Example 26, 2-(4-(6-fluoro-1H-indol-3-yl)-1H-pyrazol-1-yl)ethanol]
	< 1000	< 1000	Fc1ccc2c(-c3cn[nH]c3)c[nH]c2c1 [Example 70, 6-fluoro-3-(1H-pyrazol-4-yl)-1H-indole]
	< 1000	1000 to 10000	OCCN1CCC(Cn2cc(-c3c[nH]c4cc(F)ccc34)cn2)CC1 [Example 47, 2-(4-((4-(6-fluoro-1H-indol-3-yl)-1H-pyrazol-1-yl)methyl)piperidin-1-yl)ethanol]
	1000 to 10000	< 1000	Fc1ccc2c(-c3cnn(-c4cccnn4)c3)c[nH]c2c1 [Example 107, 6-fluoro-3-(1-(pyridazin-3-yl)-1H-pyrazol-4-yl)-1H-indole]
	< 1000	< 1000	CN1CCC(Cn2cc(-c3c[nH]c4cc(F)ccc34)cn2)CC1 [Example 53, 6-fluoro-3-(1-((1-methylpiperidin-4-yl)methyl)-1H-pyrazol-4-yl)-1H-indole]
	1000 to 10000	1000 to 10000	NC(=O)NCCn1cc(-c2c[nH]c3cc(F)ccc23)cn1 [Example 22, 1-(2-(4-(6-fluoro-1H-indol-3-yl)-1H-pyrazol-1-yl)ethyl)urea]
	1000 to 10000	1000 to 10000	CS(=O)(=O)N1CCC(Cn2cc(-c3c[nH]c4cc(F)ccc34)cn2)CC1 [Example 54, 6-fluoro-3-(1-((1-(methylsulfonyl)piperidin-4-yl)methyl)-1H-pyrazol-4-yl)-1H-indole]
	1000 to 10000	< 1000	CN1CCN(CCn2cc(-c3c[nH]c4cc(F)ccc34)cn2)CC1 [Example 19, 6-fluoro-3-(1-(2-(4-methylpiperazin-1-yl)ethyl)-1H-pyrazol-4-yl)-1H-indole]
	< 1000	< 1000	Fc1ccc2c(-c3cnn(C4CNC4)c3)c[nH]c2c1 [Example 2, 3-(1-(azetidin-3-yl)-1H-pyrazol-4-yl)-6-fluoro-1H-indole]
	< 1000	< 1000	OC(CN1CCC(Cn2cc(-c3c[nH]c4cc(F)ccc34)cn2)CC1)C(F)(F)F (stereo not drawn) [Example 48, 1,1,1-trifluoro-3-(4-((4-(6-fluoro-1H-indol-3-yl)-1H-pyrazol-1-yl)methyl)piperidin-1-yl)propan-2-ol]
	< 1000	< 1000	FCCN1CCC(Cn2cc(-c3c[nH]c4cc(F)ccc34)cn2)CC1 [Example 46, 6-fluoro-3-(1-((1-(2-fluoroethyl)piperidin-4-yl)methyl)-1H-pyrazol-4-yl)-1H-indole]
	1000 to 10000	< 1000	CS(=O)(=O)NCCn1cc(-c2c[nH]c3cc(F)ccc23)cn1 [Example 25, N-(2-(4-(6-fluoro-1H-indol-3-yl)-1H-pyrazol-1-yl)ethyl)methanesulfonamide]
210.2 to 211	1000 to 10000		CC(C)C(=O)N1CCC(n2cc(-c3c[nH]c4cc(F)ccc34)cn2)CC1 [Example 86, 1-(4-(4-(6-fluoro-1H-indol-3-yl)-1H-pyrazol-1-yl)piperidin-1-yl)-2-methylpropan-1-one]

melting point [°C]	IC50 [1] [nM]	IC50 [2] [nM]	Compound
	< 1000	< 1000	Fc1ccc2c(-c3cnn(CC4CNC4)c3)c[nH]c2c1 [Example 6, 3-(1-(azetidin-3-ylmethyl)-1H-pyrazol-4-yl)-6-fluoro-1H-indole]
170.6 to 171.9	1000 to 10000		CS(=O)(=O)CCn1cc(-c2c[nH]c3cc(F)c(F)cc23)cn1 [Example 32, 5,6-difluoro-3-(1-(2-(methylsulfonyl)ethyl)-1H-pyrazol-4-yl)-1H-indole]
223 to 224.6	1000 to 10000		CN(C)C(=O)N1CCC(n2cc(-c3c[nH]c4cc(F)ccc34)cn2)CC1 [Example 90, 4-(4-(6-fluoro-1H-indol-3-yl)-1H-pyrazol-1-yl)-N,N-dimethylpiperidine-1-carboxamide]
	1000 to 10000	1000 to 10000	CNC(=O)Cn1cc(-c2c[nH]c3cc(F)ccc23)cn1 [Example 39, 2-(4-(6-fluoro-1H-indol-3-yl)-1H-pyrazol-1-yl)-N-methylacetamide]
	1000 to 10000	< 1000	Cc1c(-c2c[nH]c3cc(F)ccc23)cnn1C (single isomer, unassigned) [Example 74, 3-(1,5-dimethyl-1H-pyrazol-4-yl)-6-fluoro-1H-indole]
190.7 to 191.4	1000 to 10000		O=C(C1CC1)N1CCC(n2cc(-c3c[nH]c4cc(F)ccc34)cn2)CC1 [Example 88, cyclopropyl(4-(4-(6-fluoro-1H-indol-3-yl)-1H-pyrazol-1-yl)piperidin-1-yl)methanone]
99.9 to 102.1	1000 to 10000		O=C(CO)N1CCC(n2cc(-c3c[nH]c4cc(F)ccc34)cn2)CC1 [Example 84, 1-(4-(4-(6-fluoro-1H-indol-3-yl)-1H-pyrazol-1-yl)piperidin-1-yl)-2-hydroxyethanone]
	1000 to 10000	< 1000	Nc1ccc(-n2cc(-c3c[nH]c4cc(F)ccc34)cn2)nn1 [Example 109, 6-(4-(6-fluoro-1H-indol-3-yl)-1H-pyrazol-1-yl)pyridazin-3-amine]
	1000 to 10000	< 1000	NC(=O)[C@H]1C[C@@H](n2cc(-c3c[nH]c4cc(F)ccc34)cn2)C1 [Example 61, (1S,3R)-3-(4-(6-fluoro-1H-indol-3-yl)-1H-pyrazol-1-yl)cyclobutanecarboxamide]
	1000 to 10000	< 1000	Fc1ccc2c(-c3cnn(CCN4CCNCC4)c3)c[nH]c2c1 [Example 27, 6-fluoro-3-(1-(2-(piperazin-1-yl)ethyl)-1H-pyrazol-4-yl)-1H-indole]
	1000 to 10000	< 1000	CC(Cn1cc(-c2c[nH]c3cc(F)ccc23)cn1)C(N)=O (single isomer, unassigned) [Example 36, 3-(4-(6-fluoro-1H-indol-3-yl)-1H-pyrazol-1-yl)-2-methylpropanamide]
	1000 to 10000	< 1000	Fc1ccc2c(-c3cnn(CCN4CCCC4)c3)c[nH]c2c1 [Example 29, 6-fluoro-3-(1-(2-(pyrrolidin-1-yl)ethyl)-1H-pyrazol-4-yl)-1H-indole]
	< 1000	< 1000	Cn1cc(-c2c[nH]c3cc(F)ccc23)cn1 [Example 73, 6-fluoro-3-(1-methyl-1H-pyrazol-4-yl)-1H-indole]
	1000 to 10000	1000 to 10000	NC(=O)Cn1cc(-c2c[nH]c3cc(F)ccc23)cn1 [Example 38, 2-(4-(6-fluoro-1H-indol-3-yl)-1H-pyrazol-1-yl)acetamide]
	< 1000	< 1000	Fc1ccc2c(-c3cnn(-c4ccncc4)c3)c[nH]c2c1 [Example 113, 6-fluoro-3-(1-(pyridin-4-yl)-1H-pyrazol-4-yl)-1H-indole]
	1000 to 10000	< 1000	CC(=O)N1CCC(Cn2cc(-c3c[nH]c4cc(F)ccc34)cn2)CC1 [Example 51, 1-(4-((4-(6-fluoro-1H-indol-3-yl)-1H-pyrazol-1-yl)methyl)piperidin-1-yl)ethanone]
